Laboratory results from patent publication US20190345150A1, “MICROBIOCIDAL OXADIAZOLE DERIVATIVES” (SYNGENTA PARTICIPATIONS AG, priority 2016, published 2019).
Where “and” joins values, the source holds several entries; their conditions need not be identical. Identical values can stand only once. Each block holds one compound with its values, some of them ahead of it.

Legend:
[1] = tested on: Puccinia recondita f. Sp. Tritici; assay: Puccinia recondita f. sp. tritici / wheat / leaf disc curative (brown rust); type: in vivo; conditions: foliar, 24 h, 200 ppm in the applied formulation, wheat leaf segments cv. Kanzler, curative (applied 1 day after inoculation), compared to untreated control, read-out: disease control
Protocol: Leaf disks or leaf segments of various plant species are cut from plants grown in a greenhouse. The cut leaf disks or segments are placed in multiwell plates (24-well format) onto water agar. The leaf disks are sprayed with a test solution before (preventative) or after (curative) inoculation. Compounds to be tested are prepared as DMSO solutions (max. 10 mg/ml) which are diluted to the appropriate concentration with 0.025% Tween20 just before spraying. The inoculated leaf disks or segments are incubated under defined conditions (temperature, relative humidity, light, etc.) according to the respective test system. A single evaluation of disease level is carried out 3 to 14 days after inoculation, depending on the pathosystem. Percent disease control relative to the untreated check leaf disks or segments is then calculated. Wheat leaf segments cv. Kanzler are placed on agar in multiwell plates (24-well format). The leaf segments are then inoculated with a spore suspension of the fungus. Plates were stored in darkness at 19° C. and 75% relative humidity. The formulated test compound diluted in water was applied 1 day after inoculation. The leaf segments were incubated at 19° C. and 75% relative humidity under a light regime of 12 hours light/12 hours darkness in a climate cabinet and the activity of a compound was assessed as percent disease control compared to untreated when an appropriate level of disease damage appears in untreated check leaf segments (6 to 8 days after application).

Phakopsora pachyrhizi = Phakopsora pachyrhizi / soybean / leaf disc preventative (Asian soybean rust); type: in vivo; conditions: foliar, 200 ppm in the applied formulation, soybean leaf disks, preventative (inoculated 1 day after application), compared to untreated control, read-out: disease control
Protocol: Leaf disks or leaf segments of various plant species are cut from plants grown in a greenhouse. The cut leaf disks or segments are placed in multiwell plates (24-well format) onto water agar. The leaf disks are sprayed with a test solution before (preventative) or after (curative) inoculation. Compounds to be tested are prepared as DMSO solutions (max. 10 mg/ml) which are diluted to the appropriate concentration with 0.025% Tween20 just before spraying. The inoculated leaf disks or segments are incubated under defined conditions (temperature, relative humidity, light, etc.) according to the respective test system. A single evaluation of disease level is carried out 3 to 14 days after inoculation, depending on the pathosystem. Percent disease control relative to the untreated check leaf disks or segments is then calculated. Soybean leaf disks are placed on water agar in multiwell plates (24-well format) and sprayed with the formulated test compound diluted in water. One day after application leaf discs are inoculated by spraying a spore suspension on the lower leaf surface. After an incubation period in a climate cabinet of 24-36 hours in darkness at 20° C. and 75% rh leaf disc are kept at 20° C. with 12 h light/day and 75% rh. The activity of a compound is assessed as percent disease control compared to untreated when an appropriate level of disease damage appears in untreated check leaf disks (12 to 14 days after application).

[2] = tested on: Glomerella laqenarium (Colletotrichum laqenarium); assay: Glomerella lagenarium liquid culture / cucumber / preventative (anthracnose); type: cell-based; conditions: 20 ppm in the applied formulation, liquid culture in PDB, growth inhibition measured photometrically 3 to 4 days after application, compared to untreated control, read-out: disease control
Protocol: Mycelia fragments or conidia suspensions of a fungus prepared either freshly from liquid cultures of the fungus or from cryogenic storage, are directly mixed into nutrient broth. DMSO solutions of the test compound (max. 10 mg/ml) are diluted with 0.025% Tween20 by a factor of 50 and 10 μl of this solution is pipetted into a microtiter plate (96-well format). The nutrient broth containing the fungal spores/mycelia fragments is then added to give an end concentration of the tested compound. The test plates are incubated in the dark at 24° C. and 96% relative humidity. The inhibition of fungal growth is determined photometrically after 2 to 7 days, depending on the pathosystem, and percent antifungal activity relative to the untreated check is calculated. Conidia of the fungus from cryogenic storage are directly mixed into nutrient broth (PDB—potato dextrose broth). After placing a (DMSO) solution of test compound into a microtiter plate (96-well format), the nutrient broth containing the fungal spores is added. The test plates are incubated at 24° C. and the inhibition of growth is measured photometrically 3 to 4 days after application.

[3] = tested on: Puccinia recondita f. Sp. Tritici; assay: Puccinia recondita f. sp. tritici / wheat / leaf disc preventative (brown rust); type: in vivo; conditions: foliar, 200 ppm in the applied formulation, wheat leaf segments cv. Kanzler, preventative (inoculated 1 day after application), compared to untreated control, read-out: disease control
Protocol: Leaf disks or leaf segments of various plant species are cut from plants grown in a greenhouse. The cut leaf disks or segments are placed in multiwell plates (24-well format) onto water agar. The leaf disks are sprayed with a test solution before (preventative) or after (curative) inoculation. Compounds to be tested are prepared as DMSO solutions (max. 10 mg/ml) which are diluted to the appropriate concentration with 0.025% Tween20 just before spraying. The inoculated leaf disks or segments are incubated under defined conditions (temperature, relative humidity, light, etc.) according to the respective test system. A single evaluation of disease level is carried out 3 to 14 days after inoculation, depending on the pathosystem. Percent disease control relative to the untreated check leaf disks or segments is then calculated. Wheat leaf segments cv. Kanzler were placed on agar in multiwell plates (24-well format) and sprayed with the formulated test compound diluted in water. The leaf disks were inoculated with a spore suspension of the fungus 1 day after application. The inoculated leaf segments were incubated at 19° C. and 75% relative humidity (rh) under a light regime of 12 hours light/12 hours darkness in a climate cabinet and the activity of a compound was assessed as percent disease control compared to untreated when an appropriate level of disease damage appears in untreated check leaf segments (7 to 9 days after application).

melting point: 50.2 to 51.8 °C
SMILES: CC1(C)CON=C1OCc1ccc(-c2noc(C(F)(F)F)n2)cc1 [Compound 1.1, 3-[4-[(4,4-dimethyl-5H-isoxazol-3-yl)oxymethyl]phenyl]-5-(trifluoromethyl)-1,2,4-oxadiazole]
pest or weed control at 200 ppm [1]: ≥ 80%
pest or weed control at 200 ppm (Phakopsora pachyrhizi): ≥ 80%
inhibition of growth at 20 ppm [2]: ≥ 80%
pest or weed control at 200 ppm [3]: ≥ 80%

melting point: 97 to 101 °C and 97 to 100.9 °C
SMILES: FC(F)(F)c1nc(-c2ccc(COC3=NOCC3)cc2)no1 [Compound 1.2, 3-[4-(4,5-dihydroisoxazol-3-yloxymethyl)phenyl]-5-(trifluoromethyl)-1,2,4-oxadiazole]
pest or weed control at 200 ppm [1]: ≥ 80%
pest or weed control at 200 ppm (Phakopsora pachyrhizi): ≥ 80%
inhibition of growth at 20 ppm [2]: ≥ 80%
pest or weed control at 200 ppm [3]: ≥ 80%

melting point: 107.9 to 108.6 °C
SMILES: CC1(C)CC(OCc2ccc(-c3noc(C(F)(F)F)n3)cc2)=NO1 [Compound 1.3, 3-[4-[(5,5-dimethyl-4H-isoxazol-3-yl)oxymethyl]phenyl]-5-(trifluoromethyl)-1,2,4-oxadiazole]
pest or weed control at 200 ppm (Phakopsora pachyrhizi): ≥ 80%
inhibition of growth at 20 ppm [2]: ≥ 80%

melting point: 61.8 to 64.4 °C
SMILES: FC(F)(F)c1nc(-c2ccc(COc3ccon3)cc2)no1 [Compound 1.4, 3-[4-(isoxazol-3-yloxymethyl)phenyl]-5-(trifluoromethyl)-1,2,4-oxadiazole]
pest or weed control at 200 ppm [1]: ≥ 80%
pest or weed control at 200 ppm (Phakopsora pachyrhizi): ≥ 80%
inhibition of growth at 20 ppm [2]: ≥ 80%
pest or weed control at 200 ppm [3]: ≥ 80%

melting point: 81.2 to 82.6 °C
SMILES: Cc1cc(OCc2ccc(-c3noc(C(F)(F)F)n3)cc2)no1 [Compound 1.5, 3-[4-[(5-methylisoxazol-3-yl)oxymethyl]phenyl]-5-(trifluoromethyl)-1,2,4-oxadiazole]
pest or weed control at 200 ppm [1]: ≥ 80%
pest or weed control at 200 ppm (Phakopsora pachyrhizi): ≥ 80%
inhibition of growth at 20 ppm [2]: ≥ 80%
pest or weed control at 200 ppm [3]: ≥ 80%

melting point: 113.3 to 114.2 °C
SMILES: Cn1nnnc1OCc1ccc(-c2noc(C(F)(F)F)n2)cc1 [Compound 1.8, 3-[4-[(1-methyltetrazol-5-yl)oxymethyl]phenyl]-5-(trifluoromethyl)-1,2,4-oxadiazole]
pest or weed control at 200 ppm [1]: ≥ 80%
pest or weed control at 200 ppm (Phakopsora pachyrhizi): ≥ 80%
inhibition of growth at 20 ppm [2]: ≥ 80%
pest or weed control at 200 ppm [3]: ≥ 80%

melting point: 108 to 110 °C
SMILES: Fc1ccccc1OCc1ccc(-c2noc(C(F)(F)F)n2)cc1 [Compound 1.11, 3-[4-[(2-fluorophenoxy)methyl]phenyl]-5-(trifluoromethyl)-1,2,4-oxadiazole]
pest or weed control at 200 ppm [1]: ≥ 80%
pest or weed control at 200 ppm (Phakopsora pachyrhizi): ≥ 80%
inhibition of growth at 20 ppm [2]: ≥ 80%
pest or weed control at 200 ppm [3]: ≥ 80%

SMILES: Fc1cc(COC2=NOCC2)ccc1-c1noc(C(F)(F)F)n1 [Compound 1.13, 3-[4-(4,5-dihydroisoxazol-3-yloxymethyl)-2-fluoro-phenyl]-5-(trifluoromethyl)-1,2,4-oxadiazole]
pest or weed control at 200 ppm [1]: ≥ 80%
pest or weed control at 200 ppm (Phakopsora pachyrhizi): ≥ 80%
inhibition of growth at 20 ppm [2]: ≥ 80%
pest or weed control at 200 ppm [3]: ≥ 80%

melting point: 84 to 86 °C
SMILES: Fc1ccc(OCc2ccc(-c3noc(C(F)(F)F)n3)cc2)nc1 [Compound 1.16, 3-[4-[(5-fluoro-2-pyridyl)oxymethyl]phenyl]-5-(trifluoromethyl)-1,2,4-oxadiazole]
pest or weed control at 200 ppm (Phakopsora pachyrhizi): ≥ 80%

melting point: 84.9 to 87.8 °C
SMILES: Cn1ccc(OCc2ccc(-c3noc(C(F)(F)F)n3)cc2)n1 [Compound 1.17, 3-[4-[(1-methylpyrazol-3-yl)oxymethyl]phenyl]-5-(trifluoromethyl)-1,2,4-oxadiazole]
pest or weed control at 200 ppm [1]: ≥ 80%
pest or weed control at 200 ppm (Phakopsora pachyrhizi): ≥ 80%
inhibition of growth at 20 ppm [2]: ≥ 80%
pest or weed control at 200 ppm [3]: ≥ 80%

melting point: 86.1 to 87.3 °C
SMILES: CC(=O)n1ccc(OCc2ccc(-c3noc(C(F)(F)F)n3)cc2)n1 [Compound 1.18, 1-[3-[[4-[5-(trifluoromethyl)-1,2,4-oxadiazol-3-yl]phenyl]methoxy]pyrazol-1-yl]ethanone]
pest or weed control at 200 ppm [1]: ≥ 80%
pest or weed control at 200 ppm (Phakopsora pachyrhizi): ≥ 80%
inhibition of growth at 20 ppm [2]: ≥ 80%
pest or weed control at 200 ppm [3]: ≥ 80%

melting point: 137.4 to 141.8 °C
SMILES: Cc1cc(OCc2ccc(-c3noc(C(F)(F)F)n3)cc2)n[nH]1 [Compound 1.19, 3-[4-[(5-methyl-1H-pyrazol-3-yl)oxymethyl]phenyl]-5-(trifluoromethyl)-1,2,4-oxadiazole]
pest or weed control at 200 ppm [1]: ≥ 80%
pest or weed control at 200 ppm (Phakopsora pachyrhizi): ≥ 80%
inhibition of growth at 20 ppm [2]: ≥ 80%
pest or weed control at 200 ppm [3]: ≥ 80%

melting point: 104 to 106 °C
SMILES: CC(Oc1nnnn1C)c1ccc(-c2noc(C(F)(F)F)n2)cc1 (stereo not drawn) [Compound 1.22, 3-[4-[1-(1-methyltetrazol-5-yl)oxyethyl]phenyl]-5-(trifluoromethyl)-1,2,4-oxadiazole]
pest or weed control at 200 ppm [1]: ≥ 80%
pest or weed control at 200 ppm (Phakopsora pachyrhizi): ≥ 80%
inhibition of growth at 20 ppm [2]: ≥ 80%
pest or weed control at 200 ppm [3]: ≥ 80%

SMILES: CON=COCc1ccc(-c2noc(C(F)(F)F)n2)cc1 [Compound 1.23, [4-[5-(trifluoromethyl)-1,2,4-oxadiazol-3-yl]phenyl]methyl N-methoxymethanimidate]
pest or weed control at 200 ppm [1]: ≥ 80%
pest or weed control at 200 ppm (Phakopsora pachyrhizi): ≥ 80%
inhibition of growth at 20 ppm [2]: ≥ 80%
pest or weed control at 200 ppm [3]: ≥ 80%

SMILES: CN(C)C(=O)OCc1ccc(-c2noc(C(F)(F)F)n2)cc1 [Compound 3.1, [4-[5-(trifluoromethyl)-1,2,4-oxadiazol-3-yl]phenyl]methyl N,N-dimethylcarbamate]
melting point: 95 to 97 °C
pest or weed control at 200 ppm [1]: ≥ 80%
pest or weed control at 200 ppm (Phakopsora pachyrhizi): ≥ 80%
inhibition of growth at 20 ppm [2]: ≥ 80%
pest or weed control at 200 ppm [3]: ≥ 80%

SMILES: O=C(NC1CC1)OCc1ccc(-c2noc(C(F)(F)F)n2)cc1 [Compound 3.2, [4-[5-(trifluoromethyl)-1,2,4-oxadiazol-3-yl]phenyl]methyl N-cyclopropylcarbamate]
pest or weed control at 200 ppm [1]: ≥ 80%
pest or weed control at 200 ppm (Phakopsora pachyrhizi): ≥ 80%
inhibition of growth at 20 ppm [2]: ≥ 80%
pest or weed control at 200 ppm [3]: ≥ 80%

SMILES: C/C(=N/OCc1ccc(-c2noc(C(F)(F)F)n2)cc1)N1CCOCC1 [Compound 4.3, (Z)-1-morpholino-N-[[4-[5-(trifluoromethyl)-1,2,4-oxadiazol-3-yl]phenyl]methoxy]ethanimine]
pest or weed control at 200 ppm (Phakopsora pachyrhizi): ≥ 80%
inhibition of growth at 20 ppm [2]: ≥ 80%
pest or weed control at 200 ppm [3]: ≥ 80%
